Measured values: patent publication US8178545B2, “Dual small molecule inhibitors of cancer and angiogenesis” (University of Virginia Patent Foundation, priority 2004, dated 2012)
“Also recorded” adds a separate entry of the source. Read-outs that look alike come from different tables or passages of the source.

Tests used:
HT29 [1] = conditions: NCI data; cited from earlier work
KM12 [2] = conditions: NCI data; cited from earlier work
HCT-116 [3] = conditions: NCI data; cited from earlier work
HCT-15 [4] = conditions: NCI data; cited from earlier work
COLO205 [5] = conditions: NCI data; cited from earlier work
HCC-2998 [6] = conditions: NCI data; cited from earlier work
SW-620 [7] = conditions: NCI data; cited from earlier work
HeLa cells = test: Mitotic spindle formation; assay type: cell-based; conditions: low micromolar concentrations
tubulin = test: Microtubule disruption / tubulin depolymerization; assay type: cell-based; conditions: for Microtubule activity (% depolymerization): at 5 μM
[8] = tested on: Human Microvessel Endothelial Cells (HMEC); test: Endothelial cell proliferation; assay type: cell-based; conditions: triplicate, ± SEM
Description: (§1) Without wishing to be bound by any particular theory, strategies and experiments are described herein pertaining to developing an anti-cancer strategy of simultaneously inhibiting endothelial and cancer cells. […] The taxanes, taxol and docetaxel, vinblastine, vincristine and 2-methoxyestradiol all have anti-angiogenic activity in vivo. […] SC-2-71's ability to inhibit angiogenesis in an in vivo model was then examined.

[9] = tested on: Human Umbilical Vein Endothelial Cells (HUVEC); test: Endothelial cell proliferation; assay type: cell-based; conditions: triplicate, ± SEM
Description: as §1

NCI 60 human cell lines = NCI 60 human cell lines (GI50); assay type: cell-based; conditions: several cell lines of the NCI 60 panel
Description: FIG. 1 Depicts the effects of SC-2-71 against the NCI 60 human cell lines (GI50).
Several interesting findings are evident.

A-10 cells = test: Cell based phenotypic screen of microtubule disruption
Description: FIG. 2 Depicts the microtubule depolymerizing effects of SC-2-71 in A-10 cells.
The microtubule disrupting effects of SC-2-71 were detected in a cell based phenotypic screen (FIG. 2). […] This effect is consistent with the effects observed from other microtubule depolymerizers. […] This is also a hallmark of microtubule disrupting compounds. Depolymerization of interphase microtubules is a classic response of cells to relatively high concentrations of microtubule disruptors such as the vinca alkaloids.

MDA-MB-435 cells [10] = test: Cell cycle progression by flow cytometry; assay type: cell-based; conditions: 3 μM for 18 h, Krishan's reagent
Procedure: The effects of SC-2-71 on cell cycle progression were determined using flow cytometry techniques. MDA-MB-435 cells were treated with 3 μM SC-2-71 for 18 h, stained with Krishan's reagent and DNA content analyzed.

[11] = tested on: NCI/ADR cells (Pgp expressing); test: Proliferation of Pgp expressing cell line; assay type: cell-based; conditions: for IC50: Homo sapiens, NCI/ADR-RES; for Rr value: relative resistance, NCI/ADR vs MDA-MB-435
Description: Relative resistance (Rr) values can be calculated by dividing the IC50 of the […] cell line.

[12] = tested on: blood vessels on the chick chorioallantoic membrane; test: Chick chorioallantoic membrane (CAM) model of blood vessel growth; assay type: in vivo; conditions: 100 μM, compared to control
Procedure: SC-2-71 (100 μM) inhibited a translational model of blood vessel growth in vivo (CAM, FIG. 8, panel B and C) as compared to control (FIG. 8, panel A). This strongly establishes that SC-2-71 has anti-angiogenic activity. Further it raises the question as to the expression level of βIII tubulin in HMECs.

COLO205 [13] = test: NCI anticancer drug screen, proliferation (GI50); assay type: cell-based; conditions: Homo sapiens, COLO 205
Procedure: (§2) SC-2-71 was evaluated against human cultured cell lines in the NCI Anticancer Drug Development Program. […] This includes potent inhibition of colon cancer cells from primary tumors, distal metastasis and ascites fluid.

HCC-2998 [14] = test: NCI anticancer drug screen, proliferation (GI50); assay type: cell-based; conditions: Homo sapiens
Procedure: as §2

SW-620 [15] = test: NCI anticancer drug screen, proliferation (GI50); assay type: cell-based; conditions: Homo sapiens
Procedure: as §2

HCT-15 [16] = test: NCI anticancer drug screen, proliferation (GI50); assay type: cell-based; conditions: Homo sapiens
Procedure: as §2

HCT-116 [17] = test: NCI anticancer drug screen, proliferation (GI50); assay type: cell-based; conditions: Homo sapiens, grade III tumor cells (HCT116)
Procedure: as §2

HT29 [18] = test: NCI anticancer drug screen, proliferation (GI50); assay type: cell-based; conditions: Homo sapiens, HT-29
Procedure: as §2

KM12 [19] = test: NCI anticancer drug screen, proliferation (GI50); assay type: cell-based; conditions: Homo sapiens
Procedure: as §2

MDA-MB-435 cells [20] = test: Anti-proliferative activity, SRB assay; assay type: cell-based; conditions: Homo sapiens
[21] = tested on: NCI/ADR cells (Pgp expressing); conditions: NCI/ADR (Pgp expressing) and MDA-MB-435 (Pgp deficient); Tinley et al. 2003; cited from earlier work

In the case of O=c1[nH]cc(F)c(=O)[nH]1 [Compound 5FU, 5-Fluorouracil], the GI50 (HT29 [1]) is listed as 6700 nM, the GI50 (KM12 [2]) is listed as 11100 nM and the GI50 (HCT-116 [3]) is listed as 4000 nM. The GI50 (HCT-15 [4]) was 5800 nM, the GI50 (COLO205 [5]) was 7200 nM and the GI50 (HCC-2998 [6]) was 1400 nM. The GI50 (SW-620 [7]) was 26200 nM.

In the case of O=C1NC(c2ccc(-c3ccccc3)cc2)Nc2ccccc21 (stereo not drawn) [SC-2-71], the “mitotic spindles and mitotic accumulation” value (HeLa cells) is reported as “formation of abnormal mitotic spindles and mitotic accumulation”, the “Microtubule activity (% depolymerization)” value (tubulin) is reported as 50% and the IC50 [8] is reported as 20000 nM. The IC50 ([9]; Homo sapiens, HUVEC) was 1600 nM, the IC50 [9] was 1660 ± 500 nM and the GI50 (NCI 60 human cell lines) was > 100000 nM. For the same molecule, the micronucleation (A-10 cells) was “extensive micronucleation”, the “effect on cellular microtubules” value (A-10 cells; interphase microtubule network) was “concentration dependent loss of cellular microtubules” and the “cell cycle progression (DNA content)” value (MDA-MB-435 cells [10]) was “distinct mitotic accumulation”. The IC50 [11] was 1.8 ± 0.11 µM, the “transport by Pgp” value ([11]; inferred from Rr values) was “poor substrate for transport by Pgp” and the Rr value [11] was 2.95. The “blood vessel growth (CAM)” value [12] was “inhibited”, the GI50 (COLO205 [13]) was 900 nM and the GI50 (HCC-2998 [14]; HCC 2998, colon HCC2998, read-out: lowest GI50) was 68 nM. For the same molecule, the GI50 (HCC-2998 [14]; HCC-2998, read-out: GI50) was 68 nM, the GI50 (SW-620 [15]) was 4000 nM and the GI50 (HCT-15 [16]) was 400 nM. For the same molecule, the GI50 (HCT-116 [17]) was 500 nM, the GI50 (HT29 [18]) was 1000 nM and the GI50 (KM12 [19]) was 2000 nM. For the same molecule, the IC50 (MDA-MB-435 cells [20]) was 0.61 ± 0.1 µM.

With O=C(c1ccccc1)c1ccc(C2NC(=O)c3ccccc3N2)cc1 (stereo not drawn) [SC-4-283] the “inhibition of tubulin polymerization” value (tubulin) was “improved inhibitory activity in relation to SC-2-71; also recorded: potent inhibitor of tubulin polymerization”, the “Microtubule activity (% depolymerization)” value (tubulin) was 50% at 5 μM and the IC50 (MDA-MB-435 cells [20]) was 0.9 ± 0.3 µM.

In the case of O=C(c1ccccc1)c1ccc(C2NC(=O)c3ccccc3N2)cc1Cl (stereo not drawn) [SC-5-87], the “Microtubule activity (% depolymerization)” value (tubulin) is reported as 90% at 5 μM, the IC50 [11] is reported as 0.76 ± 0.01 µM and the Rr value [11] is reported as 2.9. For the same molecule, the IC50 (MDA-MB-435 cells [20]) was 0.26 ± 0.02 µM.

For Cc1ccccc1-c1ccc(C2NC(=O)c3ccccc3N2)cc1 (stereo not drawn) [SC-5-121], the “Microtubule activity (% depolymerization)” value (tubulin) was 90% at 5 μM, the IC50 [11] was 0.88 ± 0.03 µM and the Rr value [11] was 1.2. It also gave an IC50 (MDA-MB-435 cells [20]) of 0.6 ± 0.1 µM.

In the case of CC[C@]1(O)C[C@H]2CN(CCc3c([nH]c4ccccc34)[C@@](C(=O)OC)(c3cc4c(cc3OC)N(C=O)[C@H]3[C@@](O)(C(=O)OC)[C@H](OC(C)=O)[C@]5(CC)C=CCN6CC[C@]43[C@@H]65)C2)C1 [Vincristine], the GI50 (HT29 [1]) is listed as 110 nM, the GI50 (KM12 [2]) is listed as 120 nM and the GI50 (HCT-116 [3]) is listed as 120 nM. For the same molecule, the GI50 (HCT-15 [4]) was 140 nM, the GI50 (COLO205 [5]) was 120 nM and the GI50 (HCC-2998 [6]) was 110 nM. For the same molecule, the GI50 (SW-620 [7]) was 110 nM.

For CC(=O)O[C@H]1C(=O)[C@@]2(C)[C@H]([C@H](OC(=O)c3ccccc3)[C@]3(O)C[C@H](OC(=O)[C@H](O)[C@@H](NC(=O)c4ccccc4)c4ccccc4)C(C)=C1C3(C)C)[C@]1(OC(C)=O)CO[C@@H]1C[C@@H]2O [taxol], the Rr value [21] is given as 827.
